# Source: US9113629B2, “4-amino-6-(4-substituted-phenyl)-picolinates and 6-amino-2-(4-substituted-phenyl)-pyrimidine-4-carboxylates and their use as herbicides” (DOW AGROSCIENCES LLC, priority 2013, dated 2015)
# Columns and labels:
# Assay type in all cases: in vivo
# [1] = tested on: SASKR: Russian thistle (Salsola iberica); test: Post-emergent Test III, herbicidal activity in wheat and barley; settings: 21 days after application
# In short: (§1)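 GR20, GR50, GR80 and GR90 come from probit analysis of visual injury scores (0 = none, 100 = complete kill) taken 21 d after treatment. Foliar application was by track sprayer delivering 187 L/ha at five rates, from high down to 1/16×, onto greenhouse plants at the 2–3 leaf stage, with solvent-blank controls.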
# [2] = tested on: VIOSS: wild pansy (Viola tricolor), field violet (Viola arvensis); test: as above; settings: 21 days after application
# In short: as §1
# LAMSS = test: Pre-emergent Test III, preemergent activity in wheat and barley
# Procedure: Pre-emergent Test III. Seeds of test species were planted into square plastic pots (10 cm wide) containing sandy loam soil. After planting, all pots were sub-irrigated 16 h prior to compound application. A weighed amount, determined by the highest rate to be tested, of each test compound was placed in a 25 mL glass vial and was dissolved in 4 mL of a 97:3 v/v mixture of acetone and DMSO to obtain concentrated stock solutions. […] The concentrated stock solutions obtained were diluted with 20 mL of an aqueous mixture containing water and 0.02% w/v (weight/volume) of Triton X-155 to obtain spray solutions containing the highest application rates. Additional application rates were obtained by serial dilution of 12 mL of the high rate solution into a solution containing 2 mL of 97:3 v/v mixture of acetone and DMSO and 10 mL of an aqueous mixture containing water and 0.02% w/v (weight/volume) of Triton X-155 to obtain 1⁄2×, 1⁄4×, 1⁄8× and 1/16× rates of the high rate. Compound requirements are based upon a 12 mL application volume at a rate of 187 liters per hectare (L/ha). Formulated compounds were applied to the soil surface with an overhead Mandel track sprayer equipped with […] nozzles calibrated to deliver 187 L/ha over an application area of 0.503 square meters. Control pots were sprayed in the same manner with the solvent blank. The treated pots and control pots were placed in a greenhouse as described above and watered through surface irrigation. After 21 d, the condition of the test pots as compared with that of the untreated pots was determined visually and scored on a scale of 0 to 100 percent where 0 corresponds to no herbicidal effect and 100 corresponds to plant death or lack of emergence from the soil. By applying the well-accepted probit analysis as described by J. Berkson in Journal of the American Statistical Society, 48, 565 (1953) and by D. Finney in “Probit Analysis” Cambridge University Press (1952), the above data can be used to calculate GR20, GR50, GR80 and GR90 values, which are defined as growth reduction factors that correspond to the effective dose of herbicide required to kill or control 20 percent, 50 percent, 80 percent or 90 percent, respectively, of a target plant.
# [3] = tested on: PHAMI: lesser canary grass (Phalaris minor); test: Post-emergent Test III, herbicidal activity in wheat and barley
# In short: as §1
# [4] = tested on: PAPRH: common poppy (Papaver rhoeas); test: as above
# In short: as §1
# [5] = probit analysis, dose for 50 percent growth reduction
# [6] = probit analysis, dose for 80 percent growth reduction
# [7] = probit analysis, dose for growth reduction of 50 percent, 21 days after application
# [8] = probit analysis, dose for growth reduction of 80 percent, 21 days after application
smiles,measurement,setting,value
COC(=O)c1nc(-c2ccc(Br)c(F)c2)c(F)c(N)c1Cl [Compound 49],pest or weed control at 35 g/ha,"[1]; Salsola tragus, post-emergence, 504 h, 35 g ai/ha, read-out: Visual Gorowth Reduction (%) 21 days After Application SASKR",75 to 84%
same,pest or weed control at 70 g/ha,"[1]; Salsola tragus, post-emergence, 504 h, 70 g ai/ha, read-out: Visual Gorowth Reduction (%) 21 days After Application SASKR",85 to 94%
same,GR50 SASKR,[1]; [5],1 g ai/ha
same,GR80 SASKR,[1]; [6],30 g ai/ha
same,pest or weed control at 35 g/ha,"[2]; Viola tricolor, post-emergence, 504 h, 35 g ai/ha, read-out: Visual Gorowth Reduction (%) 21 days After Application VIOSS",95 to 100%
same,pest or weed control at 70 g/ha,"[2]; Viola tricolor, post-emergence, 504 h, 70 g ai/ha, read-out: Visual Gorowth Reduction (%) 21 days After Application VIOSS",95 to 100%
same,GR50 VIOSS,[2]; [5],5 g ai/ha
same,GR80 VIOSS,[2]; [6],8 g ai/ha
same,"Visual Growth Reduction (%) 21 Days After Application, LAMSS",LAMSS; 35 g ai/ha,A (95-100)
same,"Visual Growth Reduction (%) 21 Days After Application, LAMSS",LAMSS; 70 g ai/ha,A (95-100)
same,GR50 LAMSS,"LAMSS; 21 days after application, dose to kill or control 50%, probit analysis",1 g ai/ha
same,GR80 LAMSS,"LAMSS; 21 days after application, dose to kill or control 80%, probit analysis",3 g ai/ha
COC(=O)c1nc(-c2ccc(Cl)c(F)c2)c(F)c(N)c1Cl [Compound 216],pest or weed control at 35 g/ha,"[3]; Phalaris minor, post-emergence, 504 h, 35 g ai/ha, read-out: Visual Growth Reduction (%) 21 Days After Application PHAMI",0 to 29%
same,pest or weed control at 70 g/ha,"[3]; Phalaris minor, post-emergence, 504 h, 70 g ai/ha, read-out: Visual Growth Reduction (%) 21 Days After Application PHAMI",30 to 44%
same,pest or weed control at 140 g/ha,"[3]; Phalaris minor, post-emergence, 504 h, 140 g ai/ha, read-out: Visual Growth Reduction (%) 21 Days After Application PHAMI",75 to 84%
same,GR50 PHAMI,[3]; [7],>140 g ai/ha
same,GR80 PHAMI,[3]; [8],>140 g ai/ha
same,pest or weed control at 35 g/ha,"[4]; Papaver rhoeas, post-emergence, 504 h, 35 g ai/ha, read-out: Visual Growth Reduction (%) 21 Days After Application PAPRH",95 to 100%
same,pest or weed control at 70 g/ha,"[4]; Papaver rhoeas, post-emergence, 504 h, 70 g ai/ha, read-out: Visual Growth Reduction (%) 21 Days After Application PAPRH",95 to 100%
same,pest or weed control at 140 g/ha,"[4]; Papaver rhoeas, post-emergence, 504 h, 140 g ai/ha, read-out: Visual Growth Reduction (%) 21 Days After Application PAPRH",95 to 100%
same,GR50 PAPRH,[4]; [7],1 g ai/ha
same,GR80 PAPRH,[4]; [8],1 g ai/ha
